≈ marks a conversion by molar mass, not a printed value. Calls of active or inactive are those of the source. The rule behind the calls is not given here.
Tests used:
[1] = Aqueous solubility at pH 7.4
[2] = Fraction unbound in Han Wistar rat plasma; format: ADME, cell-free
[3] = Lipophilicity, log D of the compound; conditions: octanol/water
[4] = target: RAC-alpha serine/threonine-protein kinase (Homo sapiens, UniProt P31749); experiment: Inhibition of AKT1
[5] = Inhibition of AKT phosphorylation at Ser473 in human MDA-MB-468 cells; format: cell-based
[6] = Inhibition of AKT phosphorylation at Thr308 in human BT474 cells; format: cell-based; conditions: BT-474
Hepatocyte [7] = experiment: Intrinsic clearance in Han Wistar rat hepatocytes assessed per 10^-6 cells
[8] = Blood clearance in iv dosed Han Wistar rat
[9] = Oral bioavailability in Han Wistar rat; format: ADME, organism-based; conditions: in vivo
[10] = Volume of distribution at steady state in Han Wistar rat; format: ADME, organism-based; conditions: in vivo, read-out: Vdss
Hepatocyte [11] = experiment: Intrinsic clearance in human hepatocytes assessed per 10^-6 cells
Mus musculus [12] = experiment: Inhibition of AKT-mediated GSK3beta phosphorylation in human BT474c cells xenografted in nude mouse at 100 mg/kg, po after 24 hrs; format: functional, organism-based; set-up: dose 100 mg/kg
Mus musculus [13] = experiment: Inhibition of AKT-mediated GSK3beta phosphorylation in human BT474c cells xenografted in nude mouse at 100 mg/kg, po after 4 hrs; format: functional, organism-based; set-up: dose 100 mg/kg
Mus musculus [14] = experiment: Inhibition of AKT phosphorylation at S473 in human BT474c cells xenografted in nude mouse at 200 mg/kg, po after 24 hrs; format: functional, organism-based; set-up: dose 200 mg/kg
Mus musculus [15] = experiment: Inhibition of AKT phosphorylation at S473 in human BT474c cells xenografted in nude mouse at 200 mg/kg, po after 4 hrs; format: functional, organism-based; set-up: dose 200 mg/kg
Mus musculus [16] = experiment: Inhibition of AKT phosphorylation at S473 in human BT474c cells xenografted in nude mouse at 100 mg/kg, po after 24 hrs; format: functional, organism-based; set-up: dose 100 mg/kg
BT474c [17] = experiment: Inhibition of AKT phosphorylation at Thr308 in human BT474c cells at 0.01 uM to 10 uM after 24 hrs; format: cell-based
Mus musculus [18] = experiment: Inhibition of AKT phosphorylation at S473 in human BT474c cells xenografted in nude mouse at 100 mg/kg, po after 4 hrs; format: functional, organism-based; set-up: dose 100 mg/kg
BT474c [19] = experiment: Inhibition of AKT phosphorylation at Ser473 in human BT474c cells at 0.01 uM to 10 uM after 24 hrs; format: cell-based
BT474c [20] = experiment: Inhibition of AKT-mediated ribosomal S6 protein phosphorylation at S235/236 in human BT474c cells at 0.01 uM to 10 uM after 24 hrs; format: cell-based
BT474c [21] = experiment: Inhibition of AKT-mediated PRAS40 phosphorylation at T246 in human BT474c cells at 0.01 uM to 10 uM after 24 hrs; format: cell-based
Mus musculus [22] = experiment: Inhibition of AKT-mediated GSK3beta phosphorylation in human BT474c cells xenografted in nude mouse at 200 mg/kg, po after 4 hrs; format: functional, organism-based; set-up: dose 200 mg/kg
Mus musculus [23] = experiment: Inhibition of AKT-mediated GSK3beta phosphorylation in human BT474c cells xenografted in nude mouse at 200 mg/kg, po after 24 hrs; format: functional, organism-based; set-up: dose 200 mg/kg
BT474c [24] = experiment: Antitumor activity against human BT474c cells xenografted in po dosed nude mouse assessed as tumor growth inhibition administered qd for 21 days; format: functional, organism-based
BT474c [25] = experiment: Antitumor activity against human BT474c cells xenografted in nude mouse assessed as tumor growth inhibition at 200 mg/kg, po qd for 21 days; format: functional, organism-based; set-up: dose 200 mg/kg

Sequence of RAC-alpha serine/threonine-protein kinase (P31749 whole entry): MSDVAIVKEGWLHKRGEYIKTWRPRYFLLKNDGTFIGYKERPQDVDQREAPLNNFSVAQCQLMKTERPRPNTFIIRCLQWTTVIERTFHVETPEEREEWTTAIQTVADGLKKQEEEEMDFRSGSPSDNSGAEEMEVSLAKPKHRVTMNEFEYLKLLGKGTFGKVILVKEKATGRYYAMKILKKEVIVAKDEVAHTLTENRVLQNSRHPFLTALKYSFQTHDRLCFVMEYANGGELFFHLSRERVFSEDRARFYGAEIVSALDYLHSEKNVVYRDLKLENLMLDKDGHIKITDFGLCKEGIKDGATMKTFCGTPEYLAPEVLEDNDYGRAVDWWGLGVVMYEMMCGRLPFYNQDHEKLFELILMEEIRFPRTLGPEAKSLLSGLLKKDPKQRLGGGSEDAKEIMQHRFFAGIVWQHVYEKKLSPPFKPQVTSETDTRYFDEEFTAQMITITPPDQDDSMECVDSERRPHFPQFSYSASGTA

Compound | solubility [1] [µM] | logD [3] | IC50 [4] [nM] | IC50 [5] [nM] | IC50 [6] [nM] | further results
NC1(c2ccc(-c3nc4ccccc4cc3-c3ccccc3)cc2)CCC1 | 290 (≈ 102 µg/mL) | 3.6 | 243 | 250 | 557 | fraction unbound [2]: 0.011; CLH (Hepatocyte [7]): 148 µL/min; clearance ([8]; in vivo): 26 mL/min/kg; bioavailability [9]: 0%; Vd [10]: 3.1 L/kg
NC1(c2ccc(-c3nn4cccc4cc3-c3ccccc3)cc2)CCC1 | 27 (≈ 9.16 µg/mL) | 3.3 | 926 | 1230 | 2430 | 
NC1(c2ccc(-c3c(-c4ccccc4)ncc4nccn34)cc2)CCC1 | 2500 (≈ 851 µg/mL) | 1.7 | 5400 | 2480 | 2180 | 
NC1(c2ccc(-c3ncc4ccncc4c3-c3ccccc3)cc2)CCC1 | 1400 (≈ 492 µg/mL) | 2.2 | 193 | 98 | 54 | fraction unbound [2]: 0.105
NC1(c2ccc(-c3ncc4cccn4c3-c3ccccc3)cc2)CCC1 | 1500 (≈ 509 µg/mL) | 2.5 | 787 | 483 | 604 | 
NC1(c2ccc(-c3nn4ccc(=O)nc4cc3-c3ccccc3)cc2)CCC1 | 1900 (≈ 700 µg/mL) | 0.2 | 8660 | 2170 | 1620 | 
NC1(c2ccc(-c3c(-c4ccccc4)ccn4ncnc34)cc2)CCC1 | 1000 (≈ 340 µg/mL) | 1.7 | 2670 | 661 | 479 | 
NC1(c2ccc(-c3c(-c4ccccc4)ccc4ncnn34)cc2)CCC1 |  |  | 2140 | 293 | 369 | 
NC1(c2ccc(-c3nn4ccnc4cc3-c3ccccc3)cc2)CCC1 |  |  | 528 | 216 | 391 | fraction unbound [2]: 0.123; CLH (Hepatocyte [7]): 274 µL/min; CLH (Hepatocyte [11]): 8 µL/min; clearance ([8]; in vivo): 57 mL/min/kg; bioavailability [9]: 0%; Vd [10]: 2.3 L/kg
NC(=O)c1cnc(-c2ccc(C3(N)CCC3)cc2)c(-c2ccccc2)c1 |  |  | 1040 | 322 | 422 | inhibition (Mus musculus [12]): Active; inhibition (Mus musculus [13]): Active; inhibition (Mus musculus [14]): Active; inhibition (Mus musculus [15]): Active; inhibition (Mus musculus [16]): Active; inhibition (BT474c [17]): Active; inhibition (Mus musculus [18]): Active; inhibition (BT474c [19]): Active; inhibition (BT474c [20]): Active; inhibition (BT474c [21]): Active; fraction unbound [2]: 0.419; inhibition (Mus musculus [22]): Active; inhibition (Mus musculus [23]): Active; growth inhibition (GI) (BT474c [24]): Dose-dependent effect; growth inhibition (GI) (BT474c [25]): Active; CLH (Hepatocyte [7]): 4 µL/min; CLH (Hepatocyte [11]): 3 µL/min; clearance ([8]; whole blood): 21 mL/min/kg; bioavailability [9]: 48%; Vd [10]: 11.1 L/kg
NC1(c2ccc(-c3c(-c4ccccc4)ccn4ccnc34)cc2)CCC1 |  |  | 1810 | 388 | 324 | 
NC1(c2ccc(-c3ncc4nccn4c3-c3ccccc3)cc2)CCC1 | 2500 (≈ 851 µg/mL) | 1.3 | 1260 | 365 | 386 | fraction unbound [2]: 0.371; CLH (Hepatocyte [7]): 16 µL/min; CLH (Hepatocyte [11]): 3 µL/min; clearance ([8]; whole blood): 62 mL/min/kg; bioavailability [9]: 30%; Vd [10]: 10.3 L/kg
CCn1cnc2cnc(-c3ccc(C4(N)CCC4)cc3)c(-c3ccccc3)c21 |  | 2 | 8980 | 1540 | 1200 | 
NC1(c2ccc(-c3ncc4ccccc4c3-c3ccccc3)cc2)CCC1 |  |  | 301 | 179 | 535 | 
NC(=O)c1ccn2c(-c3ccccc3)c(-c3ccc(C4(N)CCC4)cc3)nc2c1 | 110 (≈ 42.1 µg/mL) | 2 | 348 | 92 | 82 | 
NC1(c2ccc(-c3ncc4cnccc4c3-c3ccccc3)cc2)CCC1 | 2200 (≈ 773 µg/mL) | 2.2 | 117 | 37 | 48 | fraction unbound [2]: 0.13; CLH (Hepatocyte [11]): 300 µL/min; clearance ([8]; whole blood): 40 mL/min/kg; Vd [10]: 0.3 L/kg
NC1(c2ccc(-c3nc4ccccn4c3-c3ccccc3)cc2)CCC1 | 1900 (≈ 645 µg/mL) | 2.8 | 387 | 124 | 182 | fraction unbound [2]: 0.068; CLH (Hepatocyte [7]): 291 µL/min; CLH (Hepatocyte [11]): 18 µL/min; clearance ([8]; whole blood): 41 mL/min/kg; bioavailability [9]: 36%; Vd [10]: 10.3 L/kg
NC1(c2ccc(-c3c(-c4ccccc4)ccc4ccnn34)cc2)CCC1 |  |  | 2720 | 824 | 1190 | 
Cn1cnc2c(-c3ccc(C4(N)CCC4)cc3)c(-c3ccccc3)ccc21 |  |  | 2800 | 359 | 343 | 
NC1(c2ccc(-c3ncc4cccnc4c3-c3ccccc3)cc2)CCC1 | 2000 (≈ 703 µg/mL) | 1.7 | 465 | 104 | 167 | 
NC1(c2ccc(-c3nc4ccccc4c(=O)n3-c3ccccc3)cc2)CCC1 | 2300 (≈ 845 µg/mL) | 1.5 | 7020 | 2080 | 2620 | 
NC1(c2ccc(-c3nn4ccccc4c3-c3ccccc3)cc2)CCC1 |  |  | 199 | 151 | 205 | clearance ([8]; whole blood): 171 mL/min/kg; bioavailability [9]: 0%; Vd [10]: 8 L/kg
NC1(c2ccc(-n3c(-c4ccccc4)nc4ccccc4c3=O)cc2)CCC1 | 1400 (≈ 514 µg/mL) | 1.6 | 41700 | 7730 | 5900 | 
NC1(c2ccc(-c3ncc4ncccc4c3-c3ccccc3)cc2)CCC1 |  |  | 188 | 47 | 89 | 
